The text below walks through data of PubChem BioAssay (NCI).

Molecules are shown by their SMILES. Where “and” joins values, the source holds several entries; their conditions need not be identical. Equal values may be shown once.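 Briefly, cells in 96-well plates were exposed to five compound concentrations for 48 h, and endpoints were estimated by linear interpolation. GI50 marks 50% less growth. The concentration for full growth arrest is given as TGI.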

Test in all cases: NCI-60 cell line screen, 48 h
In test [1] the test system is SN12C renal.
For test [2], the system named is SF-268 CNS.
The subject of test [3] is KM12 colon.
In test [4] the test system is MCF7 breast.
In test [5] the test system is SF-539 CNS.
Test [6] deals with OVCAR-3 ovarian.
The test system of test [7] is BT-549 breast.
For test [8], the system named is DU-145 prostate.
Test [9] has as its system PC-3 prostate.
Test [10] deals with HOP-62 NSCLC.

In the case of `CC(C)(C)OC(=O)N1Cc2cc3ccccc3nc2C1CO` (centres undefined), the GI50 in test [1], in test [2], in test [3], in test [4], in test [5] and in [6] was greater than 100 µM in each case. Also, the GI50 in [7], in [8], in [9] and in test [10] was greater than 100 µM in each case. Also, the TGI in test [1], in test [2], in [3], in test [4], in [5] and in test [6] was greater than 100 µM each time. Moreover, the TGI in [7], in test [8], in test [9] and in [10] was greater than 100 µM throughout.

Turning to `Cc1ccc(/C(=C/C=C(C#N)C#N)Sc2nc3ccccc3s2)cc1`, the GI50 in [1] was 1.98 µM; in test [2], 5.81 µM; in test [3] it was 4.72 µM; in test [4] it was 4.3 µM; in test [5] it was 4.77 µM; in test [6] it was 4.49 µM. The GI50 in test [7] is 0.793 µM; in test [8], 4.18 µM; in test [9], 2.25 µM; in [10], 10.1 µM. The TGI in test [1] was 4.55 µM; in test [2], 22.1 µM; in [3] it was 28.9 µM; in test [4], 32.7 µM; in test [5], 20.8 µM; in test [6] it was 19 µM. The TGI came to 3.65 µM in [7], 14.5 µM in test [8], 6.52 µM in test [9] and 30.3 µM in test [10].

Take `CC(=O)O[C@H]1CC[C@]2(C)C3C(=O)C[C@]4(C)[C@@H](C(C)CCC(=O)O)CC[C@@]4(C)[C@@H]3CC[C@H]2C1(C)C` (some centres undefined): the GI50 in test [1] is greater than 50 µM; in test [2], 21.1 µM; in test [3], 13.9 µM; in test [4], 20.7 µM; in test [5], 12.8 µM; in [6] it was 25.9 µM. The GI50 in test [7] was 17 µM; in [8] it was 19.7 µM; in [9], 18.3 µM; in [10], 27.2 µM. The TGI is greater than 50 µM in [1]; greater than 50 µM in test [2]; 38.4 µM in test [3]; greater than 50 µM in test [4]; 35.2 µM in test [5]; greater than 50 µM in test [6]. Further, the TGI in [7] was 39.4 µM; in test [8], greater than 50 µM; in test [9], greater than 50 µM; in test [10], greater than 50 µM.

As for `Cc1nn(-c2ccccc2)c2nc(C)n(-c3ccc(Br)cc3)c(=O)c12`, the GI50 in test [1] was 0.721 µM; in test [2] it was 2.33 µM; in test [3], 0.521 µM; in test [4], 0.356 µM; in [5], 0.35 µM; in [6], 0.405 µM. Moreover, the GI50 in test [7] was 0.688 µM; in [8], 1.44 µM; in [9] it was 0.475 µM; in test [10], 0.678 µM. Besides, the TGI in test [1] was greater than 100 µM; in test [2], greater than 100 µM; in [3] it was greater than 100 µM; in test [4] it was greater than 100 µM; in test [5] it was 7.09 µM; in [6] it was greater than 36.7 µM. The TGI was 67.3 µM in test [7], greater than 100 µM in [8], greater than 100 µM in test [9] and greater than 100 µM in test [10].

As to `O=C(Nc1ccc(Cl)cc1)N1CCN(c2ccc3nncn3n2)CC1`, the GI50 in [1] is 72.4 µM; in test [2], greater than 100 µM; in [3], 52.9 µM; in test [4] it was 35.3 µM; in test [5] it was greater than 100 µM; in test [6], 62.4 µM. Besides, the GI50 in test [7] is 57.4 µM; in [8], 49.8 µM; in test [9] it was 34.3 µM; in [10], greater than 100 µM. Further, the TGI in [1], in test [2], in test [3], in [4], in test [5] and in test [6] was greater than 100 µM in each case. Besides, the TGI in test [7], in test [8], in [9] and in test [10] was greater than 100 µM each time.

Take `CCCCNCCCCCNc1cc(OC)cc2cccnc12`: the GI50 in test [1] is 36.5 µM; in test [2], greater than 100 µM; in test [3], 39.3 µM; in [4] it was greater than 100 µM; in [5], 18.3 µM; in test [6], 19 µM. Besides, the GI50 in test [7] is 14.5 µM; in test [8] it was 23.1 µM; in test [9], 15.2 µM; in [10], 15.1 µM. For the same compound, the TGI in test [1] was greater than 100 µM; in test [2] it was greater than 100 µM; in test [3], greater than 100 µM; in test [4] it was greater than 100 µM; in [5] it was 34 µM; in [6], 45.5 µM. The TGI stood at 28.8 µM in test [7], 56.3 µM in test [8], 34.7 µM in test [9] and 30.1 µM in test [10].

For `O=c1[nH]c(=O)n(C2OC(CO)C(O)C2O)cc1F` (centres undefined), the TGI in test [1] is greater than 100 µM; in [2] it was greater than 100 µM; in test [3] it was 51.9 µM; in test [4] it was greater than 56.4 µM; in test [5], 3.03 µM; in test [6], 10.9 µM. Moreover, the TGI in test [7] was greater than 100 µM; in test [8] it was greater than 100 µM; in [9], greater than 100 µM; in [10], 8.59 µM. Further, the GI50 was 0.0491 µM in [2]; 0.0267 µM in test [3]; 0.00603 µM and < 0.0164 µM in [4]; 0.0231 µM in test [6].

For the compound `CCC(C)C(=O)OC1CCC=C2C=CC(C)C(CCC3CC(O)CC(=O)O3)C21` (centres undefined), the TGI is greater than 100 µM in [1]; greater than 100 µM in test [2]; greater than 100 µM in test [3]; greater than 72.2 µM in [4]; greater than 29.5 µM in [5]; greater than 100 µM in [6]. Moreover, the TGI in [7] was 73 µM; in test [8] it was greater than 100 µM; in test [9], greater than 47.9 µM; in test [10], greater than 100 µM.
